Data from patent EP4810035A1, “TREATMENT OF MODERATE TO SEVERE PLAQUE PSORIASIS” (Ganzhou Hemay Pharmaceutical, Co., Ltd, priority 2023, dated 2025).

Legend:
[1] = test system: Patients with plaque psoriasis; assay: Multicenter, randomized, double-blind, placebo-parallel controlled dose study in plaque psoriasis (Example 5); type: in vivo, human; details: for PASI-75 response rate (%): week 16
Protocol: This was a multicenter, randomized, double-blind, placebo-parallel controlled study. A total of 216 subjects were enrolled and randomized in a 1:1:1:1 ratio into the low-dose group (15 mg BID), mid-dose group (30 mg BID), high-dose group (60 mg BID) of the investigational drug, and the placebo group for a 16-week core treatment period. Upon completion of the core treatment, subjects in the low, mid and high-dose groups maintained their original doses for a 36-week extension treatment period. Subjects in the placebo group were switched to the mid-dose group (30 mg BID) for the 36-week extension treatment after completing the core period. All subjects completed a total of 52 weeks of treatment. Subjects who completed 52 weeks of treatment or discontinued prematurely should enter a 4-week follow-up period. […]

[2] = test system: subjects with moderate to severe plaque psoriasis; assay: Phase III study of moderate to severe plaque psoriasis (Example 4), double-blind placebo-controlled core period and open-label extension; details: for HADS Anxiety Score, Mean / HADS Depression Score, Mean: Experimental group (N=211)
Protocol: Tablets of the compound shown in Example 2 with a strength of 15 mg per tablet.
Control Drug: Placebo tablets matching the investigational drug with a strength of 0 mg per tablet.
• 1) Aged ≥ 18 years at the time of signing the Informed Consent Form (ICF), of any gender. • 2) Clinically diagnosed with stable plaque psoriasis, with a psoriasis history of ≥ 6 months (prior to randomization). • 3) The following requirements are met at screening and baseline: • a. Psoriasis Area and Severity Index (PASI) score ≥ 12; and • b. Static Physician Global Assessment (sPGA) score ≥ 3 (based on an sPGA 0-4 scale); and • c.
The treatment period consisted of two phases: during the double-blind core treatment period, subjects received 60 mg BID of the investigational drug or placebo for 16 weeks (week 0 to week 16); during the open-label extension treatment period, all subjects received 60 mg BID of the investigational drug for 36 weeks (week 16 to week 52).
A total of 305 subjects were enrolled (211 in the experimental group and 94 in the placebo group; including 105 T-SPOT positive subjects without active tuberculosis, 7 subjects with previously confirmed pulmonary tuberculosis, 76 subjects with a history of tuberculosis, and 1 subject with a history of tuberculous pleurisy).
The primary efficacy endpoint was the proportion of subjects achieving PASI 75 at week 16 compared to baseline. The key secondary efficacy endpoint was an sPGA 0/1 with a reduction of ≥2 points from baseline at week 16. Other secondary efficacy endpoints included the proportion of subjects achieving PASI-90, PASI-75, PASI-50, and both PASI-75 and sPGA 0/1 with a ≥ 2-point reduction from baseline at each visit, as well as the rate of change in BSA. Clinical observation and evaluation were conducted over the 16-week core treatment period, the 36-week extension treatment period and the 4-week follow-up period. The Hospital Anxiety and Depression Scale (HADS) was used as an assessment tool to observe and evaluate the anxiety and depression status of subjects at screening, the end of the 16-week core period and 4 weeks after the last dose.

[3] = test system: patients with moderate to severe chronic plaque psoriasis; assay: Clinical study on patients (Example 3), 16-week core treatment period, 36-week extension, 4-week follow-up, placebo-controlled; type: in vivo, human
Protocol: This study selected patients with moderate to severe chronic plaque psoriasis as target subjects. Specific criteria were set for disease duration, severity and extent (psoriasis history ≥ 6 months, PASI score ≥ 12, sPGA score ≥ 3, and BSA ≥ 10). […] Primary efficacy endpoint: PASI-75 at week 16. […] Improvement in pruritus symptoms and changes in DLQI scores were also evaluated. The study consisted of a 16-week core treatment period, a 36-week extension treatment period and a 4-week follow-up period. Subjects in the experimental group received 60 mg BID of the compound in Example 2. During the extension treatment period, subjects in the placebo group also received 60 mg BID of the compound in Example 2.

healthy Chinese subjects = assay: Phase I clinical study, multiple oral doses (Example 6); type: in vivo, human; details: multiple oral doses of 15 mg BID, 30 mg BID, 60 mg BID, 75 mg BID; 36 healthy Chinese subjects
Protocol: A total of 36 healthy Chinese subjects participated in a phase I clinical study, in which multiple oral doses of 15 mg BID, 30 mg BID, 60 mg BID, 75 mg BID of the compound in Example 2, or a placebo were administered, respectively.

[4] = by the end of the clinical study
[5] = 16-week core treatment period, 60 mg BID, N=211

CCOc1cc([C@@H](CS(C)(=O)=O)N2C(=O)c3csc(NC(C)=O)c3C2=O)ccc1OC [Example 2, (S)-N-[5-[1-(3-ethoxy-4-methoxyphenyl)-2-(methylsulfonyl)ethyl]-4,6-dioxo-5,6-dihydro-5H-thieno[3,4-c]pyrrol-1-yl]acetamide]
DLQI score change from baseline, Mean ([1]; 15mg BID Group (N=54)): 4.9 | PASI-50 response rate (%) ([1]; 15mg BID Group (N=54)): 42.59% | PASI-75 & sPGA 0/1 score (%) ([1]; 15mg BID Group (N=54)): 12.96% | PASI-90 response rate (%) ([1]; 15mg BID Group (N=54)): 16.67% | sPGA 0/1 score (%) ([1]; 15mg BID Group (N=54)): 14.81% | DLQI score change from baseline, Mean ([1]; 30mg BID Group (N=54)): 6.1 | PASI-50 response rate (%) ([1]; 30mg BID Group (N=54)): 51.85% | PASI-75 & sPGA 0/1 score (%) ([1]; 30mg BID Group (N=54)): 14.81% | PASI-90 response rate (%) ([1]; 30mg BID Group (N=54)): 11.11% | sPGA 0/1 score (%) ([1]; 30mg BID Group (N=54)): 14.81% | DLQI score change from baseline, Mean ([1]; 60mg BID Group (N=54)): 7.1 | PASI-50 response rate (%) ([1]; 60mg BID Group (N=54)): 62.96% | PASI-75 & sPGA 0/1 score (%) ([1]; 60mg BID Group (N=54)): 24.07% | PASI-90 response rate (%) ([1]; 60mg BID Group (N=54)): 20.37% | sPGA 0/1 score (%) ([1]; 60mg BID Group (N=54)): 24.07% | Population pharmacokinetics and exposure-response analysis ([1]; 15, 30, 60 mg BID): the efficacy response rate increased with increasing doses | death events ([1]; 15, 30, 60 mg BID): No death events occurred | adverse events of depression or anxiety [1, 4]: no adverse events of depression or anxiety were reported | occurrences of depression or suicidal ideation [1, 4]: no occurrences of depression or suicidal ideation were observed | drug-related serious adverse events ([1]; core treatment period): No drug-related serious adverse events occurred | Adverse events with an incidence of ≥10% ([1]; double-blind core treatment period (weeks 1 to 16)): diarrhea, nausea, headache, and fatigue | drug-related adverse events with an incidence of ≥5% in any of the low, medium or high-dose groups ([1]; double-blind core treatment period (weeks 1 to 16), 15, 30, 60 mg BID): increased triglycerides, increased lipids, diarrhea, nausea, abdominal discomfort, hyperlipidemia, headache, and fatigue | severity of adverse events leading to discontinuation ([1]; in vivo): Grade 1 or Grade 2 | PASI-75 and PASI-90 efficacy endpoints in a subject who had failed adalimumab therapy ([1]; one subject): also achieved the PASI-75 and PASI-90 efficacy endpoints | PASI-50 efficacy endpoint in subjects who had failed prior biologic therapy ([1]; one subject failed adalimumab, one failed secukinumab, one failed TNF-α monoclonal antibody therapy): all achieved the PASI-50 efficacy endpoint | PASI-75 response rate (%) ([1]; 15mg BID Group (N=54)): 18.52% | PASI-75 response rate (%) ([1]; 30mg BID Group (N=54)): 25.93% | PASI-75 response rate (%) ([1]; 60mg BID Group (N=54)): 46.30% | death events ([2]; 60 mg BID): No death events occurred | incidence of adverse reaction: diarrhea ([2]; 60 mg BID): 11.4% | incidence of adverse reaction: dizziness ([2]; 60 mg BID): 9.0% | incidence of adverse reaction: fatigue ([2]; 60 mg BID): 8.5% | incidence of adverse reaction: headache ([2]; 60 mg BID): 8.1% | incidence of adverse reaction: hypertriglyceridemia ([2]; 60 mg BID): 5.7% | incidence of adverse reaction: increased stool frequency ([2]; 60 mg BID): 10.4% | incidence of adverse reaction: nausea ([2]; 60 mg BID): 23.7% | incidence of adverse reaction: vomiting ([2]; 60 mg BID): 10.0% | severity of adverse events leading to discontinuation ([2]; 60 mg BID): Grade 1 or Grade 2 | severity of the primary adverse reactions ([2]; 60 mg BID): Grade 1 or Grade 2 | time of occurrence of gastrointestinal reactions and nervous system abnormalities ([2]; 60 mg BID): mostly occurred within the first two weeks of administration | tuberculosis activation (reactivation) ([2]; 105 T-SPOT positive subjects without active tuberculosis, 7 with previously confirmed pulmonary tuberculosis, 76 with history of tuberculosis, 1 with history of tuberculous pleurisy, by the end of the study): no instances of tuberculosis activation (reactivation) were observed | HADS Anxiety Score, Mean ([2]; Week 16, 60 mg BID): 2.3 | HADS Depression Score, Mean ([2]; Week 16, 60 mg BID): 3.0 | HADS Anxiety Score, Mean ([2]; Week 56, 60 mg BID): 3.1 | HADS Depression Score, Mean ([2]; Week 56, 60 mg BID): 3.8 | chest X-ray or CT examinations ([2]; any of the subjects): No clinical abnormalities related to tuberculosis were found | adverse events of depression or anxiety related to the investigational drug [2, 4]: No adverse events of depression or anxiety related to the investigational drug were observed | difference between the experimental group and the placebo group in mean HADS anxiety scores and mean HADS depression scores [2, 4]: no statistically significant differences (P>0.05) | occurrences of depression or suicidal ideation [2, 4]: no occurrences of depression or suicidal ideation | drug-related serious adverse events ([2]; core treatment period, 60 mg BID): No drug-related serious adverse events occurred | PASI-50 efficacy endpoint in subjects who had failed prior adalimumab treatment ([2]; two subjects, 60 mg BID): both achieved the PASI-50 efficacy endpoint | BSA rate of change (%) ([2]; week 16, 60 mg BID, N=211): 65.0% | Both PASI-75 and sPGA 0/1 and reduction of ≥2 points from baseline (%) ([2]; week 16, 60 mg BID, N=211): 30.3% | DLQI change from baseline, (mean) ([2]; week 16, 60 mg BID, N=211): 5.38 points | PASI-50 (%) ([2]; week 16, 60 mg BID, N=211): 82.7% | PASI-75 (%) ([2]; week 16, 60 mg BID, N=211): 53.6% | PASI-90 (%) ([2]; week 16, 60 mg BID, N=211): 32.5% | sPGA score of 0/1 and reduction of ≥2 points from baseline (%) ([2]; week 16, 60 mg BID, N=211): 31.3% | deaths ([3]; 60 mg BID): No deaths occurred | drug-related serious adverse events ([3]; 60 mg BID): No drug-related serious adverse events occurred | severity of adverse events leading to discontinuation ([3]; 60 mg BID): all Grade 1 or Grade 2 | severity of drug-related adverse events ([3]; 60 mg BID): primarily Grade 1 or Grade 2 | Secondary Efficacy Indicators, difference compared to the placebo group ([3]; 60 mg BID, P<0.0001): statistically significant differences | DLQI (LS mean) [3, 5]: 5.38 points | PASI-90 [3, 5]: 32.5% | tuberculosis reactivation ([3]; T-SPOT positive but non-active TB subjects, by the end of the clinical study): no tuberculosis reactivation occurred | occurrences of depression or suicidal ideation ([3]; by the end of the clinical study, any subjects): no occurrences of depression or suicidal ideation were observed | proportion of subjects achieving PASI-75 ([3]; week 16, 60 mg BID, N=211): 53.6% | rate difference between the two groups (PASI-75) ([3]; week 16, Example 2 group vs placebo group): 37.6% | Chest imaging examinations ([3]; week 16 visit, T-SPOT positive but non-active TB subjects): no abnormalities | safety and tolerability (healthy Chinese subjects): good safety and tolerability
